The target in assay [1] is T1, Serine/threonine-protein kinase PAK 4 (Homo sapiens, UniProt O96013). The assay is described as follows: Inhibition of PAK4 Kinase domain (291 to 591 residues) (unknown origin) transfected in TR-293-KDG cells using GEFH1 as substrate assessed as inhibition of PAK4-dependent phosphorylation of GEFH1 at S810 residue incubated for 3 hrs by ELISA. Format: cell-based. In general terms: An ELISA detects its analyte on a solid surface through an enzyme-linked reagent.

Assay [2] addresses T1, Serine/threonine-protein kinase PAK 4. The assay is described as follows: Inhibition of N-terminal 6His-tagged human recombinant PAK4 kinase domain (300 to 591 residues) using EVPRRKSLVGTPYWM peptide as substrate assessed as inhibition constant in presence of ATP by biochemical assay.
The test system of assay [3] is HCT-116. As to the kind of experiment: Effect on phosphorylated PAK4 level in human HCT-116 cells at 1 uM incubated for 15 mins by Western blot analysis. Format: functional, cell-based. A general note: A western blot detects proteins with antibodies after separation by electrophoresis.
Assay [4] concerns HCT-116. As to the kind of experiment: Effect on phosphorylated GEF-H1 level in human HCT-116 cells at 1 uM incubated for 15 mins by Western blot analysis. In kind it is functional, cell-based.

pIC50, pKi: −log10 of the molar value. Active and inactive are the calls of the source. No cut-off for these calls is given here.

T1 sequence (O96013 whole entry, the tested form may be a part): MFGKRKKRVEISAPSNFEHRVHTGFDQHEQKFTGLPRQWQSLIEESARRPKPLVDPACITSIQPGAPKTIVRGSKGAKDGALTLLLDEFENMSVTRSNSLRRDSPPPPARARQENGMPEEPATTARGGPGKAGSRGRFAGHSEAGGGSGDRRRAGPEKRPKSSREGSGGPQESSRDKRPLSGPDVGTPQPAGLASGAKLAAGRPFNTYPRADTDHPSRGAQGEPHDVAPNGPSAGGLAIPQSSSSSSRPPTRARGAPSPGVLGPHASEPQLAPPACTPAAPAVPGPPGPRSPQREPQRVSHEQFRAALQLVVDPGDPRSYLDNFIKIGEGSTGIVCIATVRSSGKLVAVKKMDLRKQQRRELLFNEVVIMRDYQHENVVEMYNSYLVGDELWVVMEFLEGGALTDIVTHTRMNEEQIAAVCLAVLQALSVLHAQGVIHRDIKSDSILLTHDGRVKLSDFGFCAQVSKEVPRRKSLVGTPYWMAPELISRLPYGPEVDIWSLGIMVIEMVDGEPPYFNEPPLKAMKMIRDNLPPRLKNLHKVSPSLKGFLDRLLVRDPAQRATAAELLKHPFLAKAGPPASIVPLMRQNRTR

Usually pIC50 stands for the IC50 on a negative log10 scale, so that one unit is a factor of ten. The pKi is the negative decadic logarithm of the Ki, by convention in mol/L. On to `C[C@@H]1CN(C(=O)N2Cc3c(NC(=O)c4ccccn4)n[nH]c3C2(C)C)[C@@H](C)CN1CC1CCOCC1`, for which the pIC50 in assay [1] is 5.00. In assay [2], the pKi was 4.28.

On to `COc1ccc(C2=NC(c3ccc(Cl)cc3)C(c3ccc(Cl)cc3)N2C(=O)N2CCNC(=O)C2)c(OC(C)C)c1` (centres undefined), for which the inhibition entry with HCT-116 [3] is “inactive”. Moreover, the outcome in the assay with HCT-116 [4] was inactive.

For the origin of these results see ChEMBL document CHEMBL5678802, “Small-molecule p21-activated kinase inhibitor PF-3758309 is a potent inhibitor of oncogenic signaling and tumor growth” (Proc Natl Acad Sci U S A, 2010).
